Experimental data published in the supplement of paper PMC11451515.

Test system: NOMO1
Test: cell viability relative to DMSO control; higher = less cytotoxic
Details: 48 h
Summary of the method: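 Viability was expressed as a per-plate percentage of DMSO wells, with cell-free wells as background. Leukemia cells (NOMO1 or SEM at 500 cells/well, P12-Ichikawa at 1000 cells/well) were adapted for at least four passages in each medium and seeded in 1536-well plates (5 μl). Library compounds in DMSO were pin-dosed over an 11-point threefold series from 47 μM to 0.79 nM, and CellTiter-Glo One luminescence was read after 48 h at 37°C.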

[1] = HPLM + 10% dialyzed FBS, 0.000781 µM
[2] = HPLM + 10% dialyzed FBS, 0.00234 µM
[3] = HPLM + 10% dialyzed FBS, 0.00702 µM
[4] = HPLM + 10% dialyzed FBS, 0.0211 µM
[5] = HPLM + 10% dialyzed FBS, 0.0632 µM
[6] = HPLM + 10% dialyzed FBS, 0.19 µM
[7] = HPLM + 10% dialyzed FBS, 0.569 µM
[8] = HPLM + 10% dialyzed FBS, 1.71 µM
[9] = HPLM + 10% dialyzed FBS, 5.12 µM
[10] = HPLM + 10% dialyzed FBS, 15.4 µM
[11] = HPLM + 10% dialyzed FBS, 46.1 µM
[12] = RPMI 5 mM glucose + 10% FBS, 0.000781 µM
[13] = RPMI 5 mM glucose + 10% FBS, 0.00234 µM
[14] = RPMI 5 mM glucose + 10% FBS, 0.00702 µM
[15] = RPMI 5 mM glucose + 10% FBS, 0.0211 µM
[16] = RPMI 5 mM glucose + 10% FBS, 0.0632 µM
[17] = RPMI 5 mM glucose + 10% FBS, 0.19 µM
[18] = RPMI 5 mM glucose + 10% FBS, 0.569 µM
[19] = RPMI 5 mM glucose + 10% FBS, 1.71 µM
[20] = RPMI 5 mM glucose + 10% FBS, 5.12 µM
[21] = RPMI 5 mM glucose + 10% FBS, 15.4 µM
[22] = RPMI 5 mM glucose + 10% FBS, 46.1 µM
[23] = RPMI 5 mM glucose + 10% dialyzed FBS, 0.000781 µM
[24] = RPMI 5 mM glucose + 10% dialyzed FBS, 0.00234 µM
[25] = RPMI 5 mM glucose + 10% dialyzed FBS, 0.00702 µM
[26] = RPMI 5 mM glucose + 10% dialyzed FBS, 0.0211 µM
[27] = RPMI 5 mM glucose + 10% dialyzed FBS, 0.0632 µM
[28] = RPMI 5 mM glucose + 10% dialyzed FBS, 0.19 µM
[29] = RPMI 5 mM glucose + 10% dialyzed FBS, 0.569 µM
[30] = RPMI 5 mM glucose + 10% dialyzed FBS, 1.71 µM
[31] = RPMI 5 mM glucose + 10% dialyzed FBS, 5.12 µM
[32] = RPMI 5 mM glucose + 10% dialyzed FBS, 15.4 µM
[33] = RPMI 5 mM glucose + 10% dialyzed FBS, 46.1 µM

Compound	cell viability [1]	cell viability [2]	cell viability [3]	cell viability [4]	cell viability [5]	cell viability [6]	cell viability [7]	cell viability [8]	cell viability [9]	cell viability [10]	cell viability [11]	cell viability [12]	cell viability [13]	cell viability [14]	cell viability [15]	cell viability [16]	cell viability [17]	cell viability [18]	cell viability [19]	cell viability [20]	cell viability [21]	cell viability [22]	cell viability [23]	cell viability [24]	cell viability [25]	cell viability [26]	cell viability [27]	cell viability [28]	cell viability [29]	cell viability [30]	cell viability [31]	cell viability [32]	cell viability [33]
N[C@H]2CN(CC12CC1)c3c(F)cc4c(c3Cl)[N@@](C=C(C4=O)C(=O)O)C5C[C@H]5F (stereo partly drawn)	98.5%	110%	98.1%	102%	98.2%	89.5%	83.2%	84%	94%	50.4%	92.1%	83.7%	92%	89.1%	78.6%	90.2%	83.5%	72.1%	82%	75.2%	48.4%	97.1%	76.7%	91%	91.2%	94.9%	98.1%	86.5%	81.9%	91.3%	89.8%	69%	77%
NC(=O)[C@H]1CCS[C@@H]2C[C@]3(CCCN3C(=O)Cc3ccc(NC(=O)COc4ccc(Cl)cc4Cl)cc3)C(=O)N12	111%	138%	123%	134%	139%	123%	102%	36.8%	39.9%	42.3%	52.3%	107%	129%	121%	131%	138%	131%	119%	103%	26.1%	26.6%	38.9%											
O=C(CC12CC3CC(CC(C3)C1)C2)Nc1cccc2nc(NCCNCCO)ccc12	79.1%	95.5%	89.4%	106%	98%	90.7%	101%	89.8%	103%	90.7%	36.6%	81.2%	89.8%	83.9%	87.8%	82.4%	90.5%	81%	87.4%	86.4%	96.4%	54.1%	73.5%	90.7%	83.2%	97.2%	86.7%	80.5%	82.4%	82.3%	77.4%	95.3%	57.7%
Cc1c(-c2cccc3c(CCCOc4cccc5ccccc45)c(C(=O)O)n(Cc4cccnc4)c23)c(COc2ccc(N3CCN([S+](=O)([O-])N(C)C)CC3)cc2)nn1C	88.7%	85.4%	83.8%	94.1%	108%	86.3%	85.9%	74.2%	89.2%	73.8%	55.4%	92.5%	97.3%	80.4%	85.7%	87.9%	94.7%	90.5%	87.8%	74.9%	79.3%	85.2%	97%	97.1%	92.5%	96.1%	95.9%	94.1%	86%	76.7%	81.4%	84.7%	72.5%
C=C1C(=O)OC(CCCCCCCC)C1C(=O)O (stereo not drawn)	107%	125%	123%	135%	135%	139%	130%	125%	104%	136%	118%	113%	114%	112%	122%	131%	127%	119%	132%	129%	127%	124%	109%	123%	113%	130%	135%	136%	125%	120%	121%	129%	120%
Cc1ccc([N+](=O)[O-])cc1[S+](=O)([O-])N(C)/N=C/c1cnc2ccc(Br)cn12	110%	116%	107%	89.8%	56.5%	12%	6.54%	5.77%	4.83%	4.05%	3.68%	121%	105%	95.9%	98.7%	84.6%	17.3%	7.83%	5.79%	5.05%	4.32%	4.08%	102%	93.9%	100%	94.2%	76.1%	19.2%	5.29%	4.54%	4.24%	4%	2.94%
O=C(Nc1nnc(-c2ccco2)o1)c1cc(-c2ccccc2)nc2ccccc12	92.3%	103%	117%	124%	118%	120%	114%	114%	65.5%	18.7%	6.68%	107%	101%	99.9%	105%	100%	101%	93%	111%	98.3%	99.3%	13.7%	102%	89.3%	107%	96.2%	103%	112%	93.4%	117%	118%	106%	13.5%
O=C1CCC[C@@H]2[C@H]3CCCN4CCC[C@@H](CN12)[C@@H]34	59.1%	68.9%	78.1%	87.1%	87.2%	94.8%	38.3%	93.2%	26.6%	25.3%	13.6%	79%	92.2%	84.6%	86.8%	85.2%	90.9%	55.3%	85.2%	17.2%	13.9%	7.48%	66.1%	79.6%	90.2%	82.9%	86%	93.6%	69.3%	77.8%	19.1%	18.6%	10.8%
